Experiments:
Format in all cases: physicochemical
Design in all cases: key: Crystal: When the formation of active crystals is observed, the term of <> is indicated; Limpid: When the solution remains limpid (absence of solid or cloudiness), it is the term of <> which is indicated
[1] = Visual observation at 0° C. with nucleation (crystal of pure active introduced, 7 more days at 0° C.); conditions: crystal of active added
Procedure: (§1) Formulations were made by diluting various actives, reported below in the table, in the compounds 1-4 synthesized above.
3) Visual observation at 0° C. with nucleation (by introducing a crystal of the pure active into the liquid)
A crystal of the active material is introduced into the formulation which has spent 7 days at 0° C. for nucleation, and the formulation is again placed for 7 days at 0° C. The aspect of the formulation is noted and the presence of crystals or the growth of the introduced crystal is possibly located.
(§2) The actives used are commercially available.

[2] = Visual observation at 25° C. of formulation of active in solvent
Procedure: as §1
1) Visual observation at 25° C.
The aspect of the formulation is noted and the presence of crystals is possibly located.
as §2

[3] = Visual observation at 0° C. after 7 days (CIPAC MT39 test); conditions: 7 days at 0° C.
Procedure: as §1
2) Visual observation at 0° C.
The formulation is placed at 0° C. for 7 days and the aspect of the formulation is noted and the presence of crystals is possibly located (CIPAC MT39 test).
as §2

[4] = active Alachlor 48% EC in the compound as solvent
[5] = active Difenconazole 25% EC in the compound as solvent
[6] = active Phenmedipham 16% EC in the compound as solvent
[7] = active Propanil 36% EC in the compound as solvent
[8] = active Propuxur 20% EC in the compound as solvent
[9] = active alpha-Cypermethrin 10% EC in the compound as solvent
[10] = active Azoxystrobine 25% EC in the compound as solvent
[11] = active Dimethoate 40% EC in the compound as solvent
[12] = active Oxyfluorfen 22% EC in the compound as solvent
[13] = active Pendimethalin 33% EC in the compound as solvent
[14] = active Tebuconazole 25% EC in the compound as solvent
[15] = active Trifluralin 40% EC in the compound as solvent
[16] = active Chlorpyrifos 40% EC in the compound as solvent

Compound	Aspect at 0° C. with nucleation [1, 4]	Aspect at 0° C. with nucleation [1, 5]	Aspect at 0° C. with nucleation [1, 7]	Aspect at 0° C. with nucleation [1, 9]	Aspect at 25° C. [2, 4]	Aspect at 25° C. [2, 5]	Aspect at 25° C. [2, 11]	Aspect at 25° C. [2, 12]	Aspect at 25° C. [2, 13]	Aspect at 25° C. [2, 7]	Aspect at 25° C. [2, 8]	Aspect at 25° C. [2, 15]	Aspect at 25° C. [2, 9]	Aspect at 0° C. [3, 4]	Aspect at 0° C. [3, 5]	Aspect at 0° C. [3, 11]	Aspect at 0° C. [3, 12]	Aspect at 0° C. [3, 13]	Aspect at 0° C. [3, 7]	Aspect at 0° C. [3, 15]	further results
COC(=O)C(=O)N(C)C [Compound 1, methyl 2-(dimethylamino)-2-oxoacetate]	Limpid	Limpid	Limpid	Limpid	Limpid	Limpid	Limpid	Limpid	Limpid	Limpid	Limpid	Limpid	Limpid	Limpid	Limpid	Crystal	Crystal	Crystal	Limpid	Crystal	Aspect at 0° C. with nucleation [1, 6]: Limpid; Aspect at 0° C. with nucleation [1, 8]: Limpid; Aspect at 25° C. [2, 10]: Limpid; Aspect at 25° C. [2, 6]: Limpid; Aspect at 25° C. [2, 14]: Limpid; Aspect at 0° C. [3, 10]: Crystal; Aspect at 0° C. [3, 6]: Limpid; Aspect at 0° C. [3, 8]: Limpid; Aspect at 0° C. [3, 14]: Crystal; Aspect at 0° C. [3, 9]: Limpid
CCOC(=O)C(=O)N(C)C [Compound 2, ethyl 2-(dimethylamino)-2-oxoacetate]	Limpid	Limpid	Limpid	Limpid	Limpid	Limpid	Limpid	Limpid	Limpid	Limpid	Limpid	Limpid	Limpid	Limpid	Limpid	Limpid	Limpid	Crystal	Limpid	Limpid	Aspect at 0° C. with nucleation [1, 16]: Limpid; Aspect at 0° C. with nucleation [1, 11]: Crystal; Aspect at 0° C. with nucleation [1, 12]: Limpid; Aspect at 0° C. with nucleation [1, 6]: Limpid; Aspect at 0° C. with nucleation [1, 15]: Limpid; Aspect at 25° C. [2, 10]: Limpid; Aspect at 25° C. [2, 16]: Limpid; Aspect at 25° C. [2, 6]: Limpid; Aspect at 25° C. [2, 14]: Limpid; Aspect at 0° C. [3, 10]: Crystal; Aspect at 0° C. [3, 16]: Limpid; Aspect at 0° C. [3, 6]: Limpid; Aspect at 0° C. [3, 8]: Crystal; Aspect at 0° C. [3, 14]: Crystal; Aspect at 0° C. [3, 9]: Limpid
CCCCC(CC)COC(=O)C(=O)N(C)C (centres unmarked) [Compound 3, 2-ethyl-hexyl 2-(dimethylamino)-2-oxoacetate]	Limpid	Limpid	Limpid	Limpid	Limpid	Limpid	Limpid	Limpid	Limpid	Limpid	Limpid	Limpid	Limpid	Limpid	Limpid	Crystal	Limpid	Crystal	Limpid	Limpid	Aspect at 0° C. with nucleation [1, 16]: Limpid; Aspect at 0° C. with nucleation [1, 12]: Crystal; Aspect at 0° C. with nucleation [1, 15]: Limpid; Aspect at 25° C. [2, 16]: Limpid; Aspect at 0° C. [3, 16]: Limpid; Aspect at 0° C. [3, 8]: Crystal; Aspect at 0° C. [3, 9]: Limpid
CCCCCCCCCCOC(=O)C(=O)N(C)C [Compound 4, n-decyl 2-(dimethylamino)-2-oxoacetate]	Limpid	Limpid	–	–	Limpid	Limpid	–	Limpid	–	Limpid	–	Limpid	–	Limpid	Limpid	–	Crystal	–	Crystal	Limpid	Aspect at 0° C. with nucleation [1, 15]: Limpid; Aspect at 25° C. [2, 16]: Limpid; Aspect at 0° C. [3, 16]: Crystal

Source: patent publication US9090538B2, “Uses of esteramide compounds” (priority 2010, dated 2015)
